Measured values taken from patent US20260027102A1, “QUINOLYLNITRONE DERIVATIVES FOR USE IN THE PREVENTION AND/OR TREATMENT OF HEARING LOSS” (CONSEJO SUPERIOR DE INVESTIGACIONES CIENTÍFICAS (CSIC), priority 2022, published 2026).

Assays:
[1] = system: HEI-OC1 mouse auditory cells; experiment: XTT cell viability assay in HEI-OC1 auditory cells with or without H2O2; type: cell-based
Method: QN23 nitrone was tested in cell cultures of HEI-OC1 mouse auditory cells derived from the Immortomouse™ postnatal organ of Corti following protocols published by the group (Cervantes et al., J Clin Med. 2019 Sep. 14; 8 (9): 1464). HEI-OC1 cells were cultured in DMEM medium supplemented with 10% fetal bovine serum (Gibco), without antibiotics.
Cells were treated with different doses of QN23 (10-50-100-150-200 μM) and with or without 1.2 mM H2O2. Cell viability was studied by XTT assay. Absorbance measurements at 450 and 660 nm were taken with the VERSAmax plate reader at 4 h, 6 h and 23 h after addition of XTT reagents. Viability results were calculated following the formula: Specific absorbance=[Abs450 nm (test)−Abs450 nm (blank)]−Abs660 nm (test). The wells without cells in the respective treatments were used as blanks. Data are represented as mean±SEM, considering the untreated control as 100% viability. Results are from 3 independent experiments and 7 wells/condition/experiment for QN23 nitrone without H2O2 treatment (A-C) or with treatment (D-E). Statistical significance was calculated by Student's test: *p<0.05; **p<0.01; ***p<0.001 in comparison vs. untreated control with QN23. […] After the exposure to H2O2, the cell viability was reduced about 50% due to the cell death associated to the oxidative damage caused by H2O2.
The inventors also compared the effect of QN23 with N-acetylcysteine (NAC). To that end, QN23 nitrone was dissolved in absolute EtOH≥99.5% (#107017; Merck) and tested in vitro in a dose range of 10-200 μM. Cells were treated with increasing doses of H2O2 (1-1.4 mM; Merck).
N-acetylcysteine (NAC) (0.5 mM; Sigma) was used as a reference antioxidant treatment. NAC is a prodrug of L-cysteine, itself a precursor of the biological antioxidant glutathione, among other intracellular actions (Ezerina et al., Cell Chem Biol. 2018 Apr. 19; 25 (4): 447-459.e4). Cells were treated with increasing doses of H2O2 (0.8-1.6 mM).
In both cases, survival curves were performed using the CyQUANT™ XTT cell viability assay (#X12223; Invitrogen) after 2 hours of the administration of QN23 or NAC.
Phenyl N-t-butylnitrone≥98% C6H5CH═N(O)C(CH3)3, PBN) (Sigma-Aldrich, catalogue number B7263) was dissolved as indicated by the manufacturer in Dimethyl sulfoxide (DMSO). DMSO was used as a solvent and had no detectable effects at the dose used (up to 0.1%). A solution 50 uM was prepared to determine the protective effect.
Cell culture, treatments with PBN and XTT assays were performed as already reported for QN23 in sections above.

C57BL/6JCrl mice = experiment: Noise-induced hearing loss in mice, auditory brainstem response (ABR) thresholds; type: in vivo; conditions: 24 h after noise exposure (105 dB, 30 min); QN23 2 mg/kg every 12 h intraperitoneally for 3 days, started 1 h before noise; vs vehicle; click and pure tones 4-32 kHz
Method: The experiments were carried out in C57BL/6JCrl mice, male or female, aged 1.5 months at the beginning of the study.
Noise exposure was performed inside a reverberation chamber. The animals were exposed to 105 dB SL for 30 minutes (Sanz L, Murillo-Cuesta S, Cobo P, Cediel-Algovia R, Contreras J, Rivera T, Varela-Nieto I, Avendaño C. Swept-sine noise-induced damage as a hearing loss model for preclinical assays. Front Aging Neurosci. 2015 Feb. 16; 7:7).
Auditory function was assessed by recording auditory brainstem evoked potentials (ABR) at baseline and after noise exposure (1 day, 14 days and 28 days after exposure), according to protocol described in (Murillo-Cuesta S, Contreras J, Zurita E, Cediel R, Cantero M, Varela-Nieto I, Montoliu L. Melanin precursors prevent premature age-related and noise-induced hearing loss in albino mice. Pigment Cell Melanoma Res. 2010 February; 23 (1): 72-83. doi: 10.1111/j.1755-148X.2009.00646.x. Epub 2009 Oct. 19).
The nitrone QN23 was prepared as described in WO2020/074666. The solution for its administration was always performed at the time of use by dissolving it under vigorous stirring in a mixture of ethanol, polyethylene glycol (PEG400, Sigma) and saline (1:200:60, V/V), until a stock solution of concentration 3.6 mg/ml was obtained. […]

With `CC(=O)N[C@@H](CS)C(=O)O` [NAC, N-acetylcysteine, reference compound] the “Protective effect on cell viability at increasing doses of H2O2” value ([1]; 0.5 mM NAC, H2O2 0.8-1.6 mM, 2 h) was “effectively protected from H2O2-induced oxidative damage and cell death at the highest doses tested”.

With `COc1ccc2nc(Cl)c(/C=[N+](\[O-])C(C)(C)C)cc2c1` [QN23, (Z)—N-tert-butyl-1-(2-chloro-6-methoxyquinolin-3-yl)methanimine oxide] the “Cell viability at low H2O2 concentration (early stages of cell deterioration)” value ([1]; 50 μM QN23, 0.8 mM H2O2, 2 h) was “enhancement of cell viability even at concentrations as low as 0.8 mM H2O2”, the “Protective effect on cell viability at increasing doses of H2O2” value ([1]; 50 μM QN23, H2O2 0.8-1.6 mM, 2 h) was “cell viability superior at all H2O2 concentrations tested” and the “Toxicity to cells (cell viability without H2O2)” value ([1]; QN23 10-200 μM for 2 h, without H2O2, XTT read at 4, 6 and 23 h) was “not toxic to the cells”. The “Cell viability after exposure to H2O2” value ([1]; QN23 10-50-100-150-200 μM with 1.2 mM H2O2 for 2 h, vs non-treated control group) was “significantly increased cell viability at all the doses tested” and the “Auditory Brainstem Response thresholds after noise exposure” value (C57BL/6JCrl mice) was “significantly lower thresholds than those receiving vehicle”.

With `CC(C)(C)[N+]([O-])=Cc1ccccc1` [PBN, Phenyl N-t-butylnitrone, reference compound] the “Protective effect on cell viability at increasing doses of H2O2” value ([1]; 50 μM PBN, without or with increasing doses of H2O2, 2 h, XTT read at 4 and 6 h, 1 experiment) was “no protection was observed when H2O2 doses were higher than 0.5 mM”.
